Tests used:
Assay in all cases: normalised response (% of control), CellTiter-Glo; higher = more viable cells (100 = DMSO, 0 = benzethonium chloride kill control)
Details in all cases: incubation time: 72 h
BT-474 = system: BT-474
Method in brief: (§1)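 Every value is a normalised signal taken at one concentration of a dilution series. Compound was placed in 384-well plates at 5 concentrations in 10-fold steps over a compound-specific 10,000-fold range, and 20 µl of breast cancer cell suspension was seeded onto it. After 72 h, CellTox Green fluorescence (485/520 nm) was measured first and CellTiter-Glo luminescence second, following 10 min at room temperature. Each plate was scaled to 0.1 % DMSO (100) and a positive kill control (0).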

BT-549 = system: BT-549
Method in brief: as §1

CAL-120 = system: CAL-120
Method in brief: as §1

CAL-148 = system: CAL-148
Method in brief: as §1

CAL-51 = system: CAL-51
Method in brief: as §1

CAL-85-1 = system: CAL-85-1
Method in brief: as §1

DU-4475 = system: DU-4475
Method in brief: as §1

HCC1143 = system: HCC1143
Method in brief: as §1

HCC1599 = system: HCC1599
Method in brief: as §1

HCC1937 = system: HCC1937
Method in brief: as §1

HDQ-P1 = system: HDQ-P1
Method in brief: as §1

Hs578T = system: Hs578T
Method in brief: as §1

MCF-10A = system: MCF-10A
Method in brief: as §1

MDA-MB-231 = system: MDA-MB-231
Method in brief: as §1

MDA-MB-436 = system: MDA-MB-436
Method in brief: as §1

MDA-MB-453 = system: MDA-MB-453
Method in brief: as §1

MDA-MB-468 = system: MDA-MB-468
Method in brief: as §1

MFM-223 = system: MFM-223
Method in brief: as §1

SK-BR-3 = system: SK-BR-3
Method in brief: as §1

| SMILES | normalised response (BT-474) | normalised response (BT-549) | normalised response (CAL-120) | normalised response (CAL-148) | normalised response (CAL-51) | normalised response (CAL-85-1) | normalised response (DU-4475) | normalised response (HCC1143) | normalised response (HCC1599) | normalised response (HCC1937) | normalised response (HDQ-P1) | normalised response (Hs578T) | normalised response (MCF-10A) | normalised response (MDA-MB-231) | normalised response (MDA-MB-436) | normalised response (MDA-MB-453) | normalised response (MDA-MB-468) | normalised response (MFM-223) | normalised response (SK-BR-3) |
| --- | --- | --- | --- | --- | --- | --- | --- | --- | --- | --- | --- | --- | --- | --- | --- | --- | --- | --- | --- |
| CCN(CC)CCCC(C)Nc1ccnc2cc(Cl)ccc12 (stereo unspecified) [Chloroquine] (10 nM) | 96.5% | 107% | 103% | 89.2% | 126% | 99.8% | 92.2% | 104% | 90.9% | 95.3% | 99% | 104% | 101% | 101% | 113% | 103% | 95.2% | 96.7% | 92.5% |
| CCN(CC)CCCC(C)Nc1ccnc2cc(Cl)ccc12 (stereo unspecified) [Chloroquine] (100 nM) | 99.9% | 103% | 98.8% | 88.6% | 71.1% | 94.5% | 92.9% | 103% | 46% | 103% | 102% | 102% | 93.7% | 96.7% | 103% | 91.5% | 91.7% | 100% | 88.3% |
| CC1(COc2ccc3c(c2)ncn3-c2ccc3cccc(N4CCC(N)CC4)c3n2)COC1 [Crenolanib] (1 nM) | 102% | 110% | 98.5% | 102% | 123% | 96.6% | 108% | 98.5% | 105% | 103% | 102% | 103% | 116% | 98.7% | 97.9% | 90.9% | 102% | 99.5% | 106% |
| CC(C)(C)c1nc(-c2cccc(NS(=O)(=O)c3c(F)cccc3F)c2F)c(-c2ccnc(N)n2)s1 [Dabrafenib] (0.25 nM) | 98.9% | 109% | 98.9% | 116% | 109% | 103% | 101% | 108% | 98.8% | 106% | 104% | 101% | 109% | 104% | 101% | 104% | 99.7% | 104% | 108% |
| Cn1cc(C2=C(c3cn(C4CCN(Cc5ccccn5)CC4)c4ccccc34)C(=O)NC2=O)c2ccccc21 [Enzastaurin] (10 nM) | 99.6% | 92.4% | 92.7% | 96.2% | 92.2% | 107% | 103% | 103% | 96.3% | 95.5% | 99.4% | 100% | 106% | 104% | 107% | 107% | 96.5% | 104% | 104% |
| Cc1nc(C(=O)NCC(=O)O)c(O)c2ccc(Oc3ccccc3)cc12 [FG-4592] (1 nM) | 94.7% | 104% | 98.5% | 102% | 89.8% | 98.9% | 103% | 108% | 100% | 102% | 106% | 103% | 111% | 101% | 96.2% | 109% | 98.4% | 102% | 111% |
| Cc1nc(C(=O)NCC(=O)O)c(O)c2ccc(Oc3ccccc3)cc12 [FG-4592] (10 nM) | 104% | 99.1% | 100% | 117% | 90.5% | 101% | 101% | 105% | 104% | 105% | 103% | 103% | 111% | 101% | 95% | 109% | 97.3% | 107% | 109% |
| CC(C)(C)NC(=O)[C@H]1CC[C@H]2[C@@H]3CC[C@H]4NC(=O)C=C[C@]4(C)[C@H]3CC[C@]12C [Finasteride] (10 nM) | 98.3% | 96.4% | 99.5% | 101% | 80.6% | 98.7% | 102% | 108% | 114% | 103% | 97.3% | 101% | 104% | 104% | 95.9% | 113% | 106% | 97.8% | 121% |
| CC(C)C[C@H](NC(=O)[C@@H](COC(C)(C)C)NC(=O)[C@H](Cc1ccc(O)cc1)NC(=O)[C@H](CO)NC(=O)[C@H](Cc1c[nH]c2ccccc12)NC(=O)[C@H](Cc1cnc[nH]1)NC(=O)[C@@H]1CCC(=O)N1)C(=O)N[C@@H](CCCNC(=N)N)C(=O)N1CCC[C@H]1C(=O)NNC(N)=O [Goserelin] (10 nM) | 98% | 99.4% | 101% | 94.6% | 92.5% | 93.8% | 100% | 99.2% | 98.5% | 93.7% | 101% | 99.5% | 102% | 94% | 98% | 102% | 96.1% | 94.2% | 119% |
| O=C(O)CNC(=O)c1c(O)c2ccccc2n(Cc2ccccc2)c1=O [IOX-2] (5 nM) | 99.3% | 95.9% | 93.9% | 94.5% | 99.5% | 95.9% | 97.3% | 94.8% | 103% | 95% | 100% | 95% | 106% | 94.5% | 95.4% | 104% | 93.6% | 92.5% | 95.3% |
| C=CCn1c(=O)c2cnc(Nc3ccc(N4CCN(C)CC4)cc3)nc2n1-c1cccc(C(C)(C)O)n1 [MK1775] (10 nM) | 87.5% | 98.9% | 93.1% | 79.3% | 121% | 93.2% | 93.2% | 92.4% | 107% | 94.5% | 94.4% | 101% | 83% | 90.5% | 88.6% | 81% | 90.4% | 88.8% | 76.1% |
| CN(C)C(=N)NC(=N)N [Metformin] (10 nM) | 92.3% | 98.3% | 103% | 97.7% | 86.8% | 99.6% | 87.8% | 98% | 93.1% | 90.6% | 97.7% | 93.2% | 77% | 96.5% | 91.7% | 80.5% | 89.4% | 88.1% | 76.9% |
| CN(Cc1cnc2nc(N)nc(N)c2n1)c1ccc(C(=O)N[C@@H](CCC(=O)O)C(=O)O)cc1 [Methotrexate] (5 nM) | 100% | 117% | 99.5% | 105% | 103% | 101% | 105% | 107% | 88.1% | 107% | 102% | 109% | 107% | 109% | 97.6% | 116% | 108% | 108% | 118% |
| CN(Cc1cnc2nc(N)nc(N)c2n1)c1ccc(C(=O)N[C@@H](CCC(=O)O)C(=O)O)cc1 [Methotrexate] (50 nM) | 101% | 100% | 32.5% | 109% | 63.7% | 76.7% | 88.4% | 84.5% | 51.9% | 33% | 35.5% | 47.6% | 111% | 100% | 86.1% | 114% | 92.8% | 108% | 74.7% |
| CO[C@@H]1[C@H](N(C)C(=O)c2ccccc2)C[C@H]2O[C@]1(C)n1c3ccccc3c3c4c(c5c6ccccc6n2c5c31)C(=O)NC4 [Midostaurin] (10 nM) | 98.6% | 107% | 96% | 105% | 97.2% | 100% | 97.5% | 98.9% | 123% | 95.3% | 97.5% | 99.4% | 96.3% | 102% | 104% | 96.7% | 106% | 96.7% | 96.1% |
| CO[C@@]12[C@H](COC(N)=O)C3=C(C(=O)C(C)=C(N)C3=O)N1C[C@@H]1N[C@@H]12 [Mitomycin C] (10 nM) | 92.7% | 98.3% | 96.9% | 86.7% | 105% | 96.5% | 98.9% | 96.3% | 82.3% | 101% | 96.7% | 98.7% | 96.3% | 97% | 91% | 89% | 92.8% | 97.2% | 94.4% |
| CCNC(=O)c1noc(-c2cc(C(C)C)c(O)cc2O)c1-c1ccc(CN2CCOCC2)cc1 [NVP-AUY922] (1 nM) | 114% | 97.2% | 106% | 104% | 106% | 105% | 105% | 104% | 108% | 102% | 104% | 101% | 106% | 103% | 104% | 113% | 107% | 104% | 106% |
| CC1(C)CCC(c2ccc(Cl)cc2)=C(CN2CCN(c3ccc(C(=O)NS(=O)(=O)c4ccc(N[C@H](CCN5CCOCC5)CSc5ccccc5)c(S(=O)(=O)C(F)(F)F)c4)cc3)CC2)C1 [Navitoclax] (10 nM) | 94.5% | 99.5% | 91.7% | 90% | 115% | 97% | 99.4% | 95.9% | 103% | 101% | 87.5% | 99.7% | 98.6% | 98.1% | 98% | 100% | 87.6% | 96.7% | 77.3% |
| Cc1cn(-c2cc(NC(=O)c3ccc(C)c(Nc4nccc(-c5cccnc5)n4)c3)cc(C(F)(F)F)c2)cn1 [Nilotinib] (10 nM) | 100% | 103% | 88.6% | 92.7% | 85.8% | 100% | 106% | 96.5% | 104% | 96.5% | 93.5% | 94% | 104% | 91.2% | 94.1% | 103% | 98.8% | 97.3% | 105% |
